Experiments:
[1] = tested on: Panc-1 cells; test: RealTime-Glo Annexin V Apoptosis and Necrosis Assay; type: cell-based
Procedure: FIGS. 2A and 2B depict the Annexin V Apoptosis and Necrosis Assay in Panc-1 cells. Panc-1 cells were exposed to serial dilutions of 057 in the presence or absence of the RealTime-Glo™ Annexin V Apoptosis and Necrosis Assay Reagent. The plate was incubated at 37° C./5% CO2 and luminescence (Annexin V binding) was measured over a period of 6 hours.

[2] = tested on: pancreatic cancer cell lines; test: Imaging of pancreatic cancer cell lines over time; type: cell-based; details: 10 uM, time 0 to 240 minutes
Procedure: FIG. 3 depicts the Effects of 10 uM BCN057 on the viability of pancreatic cancer cell lines. The images show pancreatic cancer cell lines at time 0 (FIG. 3A), 15 minutes (FIG. 3B), 30 minutes (FIG. 3C), 60 minutes (FIG. 3D), 120 minutes (FIG. 3E) and 240 minutes (FIG. 3F).

[3] = tested on: pancreatic cancer cell lines; test: ATP Lite viability assay of pancreatic cancer cell lines; type: cell-based
Procedure: FIG. 1 depicts the Effects of 5-FU and BCN057 on the viability of pancreatic cancer cell lines. The Effects of 5-FU and BCN057 on the viability of pancreatic cancer cell lines were assessed by ATP Lite assay (Perkin Elmer). 50 uM 5Fu (5Fu, n=5), 50 uM 5Fu and 2, 5, 10, and 20 uM BCN057 (5Fu+BCN057, n=5) or 2, 5, 10.20 uM CN057 (CN057, n=5). Control cells (V, n=5) The Percent Phosphorylation was calculated by dividing the average value for each condition by the average value of the control cells (V) at each time point.
FIGS. 4A and 4B show Compound H, Compound K and the results of a Viability Assay on Pancreatic Cells. […] The numeric data is also included (FIG. 4B). FIG. 5A depicts Compound H and FIG. 5B depicts Compound K.

[4] = Solubility in aqueous formulations; type: physicochemical; details: 30 wt % Captisol (SBE-beta-CD) and 100 mM MSA, at up to pH 4.1 or higher
[5] = tested on: Wnt activity; test: TOPFLASH assay of exosomes purified from lung organoid conditioned medium; type: cell-based, mice; details: irradiated organoids treated with BCN512 compared to irradiated control
Procedure: If BCN512 and related structures inhibit the activity of SRFPs, BCN512 can allow more free Wnt ligand from epithelial cells. Free Wnt ligands are secreted and transported through exosomes. To determine the role of BCN512 in pulmonary epithelium derived Wnt release, exosomes were purified from organoid conditioned medium. Purified exosomes were tested for Wnt activity by the TOPFLASH assay.
Wnt activity has also been examined in exosomes derived from human lung organoids.

[6] = tested on: Wnt activity; test: TOPFLASH assay of exosomes purified from human lung organoid conditioned medium; type: cell-based; details: human lung organoids irradiated (4-6 Gy), treated with BCN512, compared to irradiated control
Procedure: For the role of BCN512 in human pulmonary epithelium derived Wnt release, exosome were purified from organoid conditioned medium. Purified exosomes were tested for Wnt activity by TOPFLASH assay.

[7] = tested on: lung fibrosis; test: Fibrotic lesions in lung sections; type: in vivo; details: BCN512 treated (20×512) vs. vehicle (20×V), C57BL mice, day 180, five mice per group
From the text: Lesions were defined by local density with five mice per group assessed at day 180. This effect is observed with non-radiation induced stimuli such as LPS and cytotoxic drugs.

[8] = tested on: TGFβ; test: Histopathology of lung and cardiac muscle sections stained for TGFβ after thoracic radiation; type: in vivo, C57M Male mice
Procedure: Transforming growth factor β (TGF-β) is a central mediator of fibrogenesis. […] TGFβ is reduced when treated for the first 20 days post radiation with BCN512 at 5 mg/kg. Images D-F are cardiac muscle stains under the identical parameters above from the same animals. […] We expect the same results using non-radiation induced stimuli including LPS and cytotoxic drugs.

[9] = tested on: HEK293 cells having a TCF/LEF luciferase reporter construct; test: TCF/LEF luciferase reporter assay of canonical WNT activity; type: cell-based; details: after 24 hours, compared with vehicle treated cells
Procedure: These studies and observations are consistent with previous observations, specifically that WNT-catenin signaling promotes the self-renewal and differentiation of LGR5+ epithelial (lung, oral, intestinal) stem cells. Canonical WNT activity was measured in HEK293 cells having a TCF/LEF luciferase reporter construct. Luciferase activity was measured after 24 hours.

SMILES	fluorescence (necrosis) ([1]; over the same 6 hour period)	apoptosis (luminescence, Annexin V binding) ([1]; serial dilutions, measured over 6 hours)	morphological changes and apoptosis [2]	antineoplastic activity / proliferation of the tumor cell line [3]	solubility [4]	exosomal Wnt activity [5]	exosomal Wnt activity [6]	lung fibrosis (number of fibrotic lesions in lung sections) [7]	TGFβ staining in lung sections ([8]; 14Gy thoracic radiation, 5 mg/kg for the first 20 days post radiation, assessed on day 90)	TGFβ staining with non-radiation induced stimuli ([8]; non-radiation induced stimuli including LPS and cytotoxic drugs)	TGFβ staining in cardiac muscle ([8]; same animals and parameters: 14Gy thoracic radiation, 5 mg/kg for first 20 days, day 90)	luciferase activity [9]
COc1ccc2cc(-c3nc4ccc(C)cn4c3NCc3ccco3)c(=O)[nH]c2c1 [BCN057, (3-[(Furan-2-ylmethyl)-amino]-2-(7-methoxy-2-oxo-1,2-dihydro-quinolin-3-yl)-6-methyl-imidazo[1,2-a]pyridin-1-ium)]	No change	increase with increasing concentrations	particularly apparent at 240 minutes	inhibits the proliferation of the tumor cell line	excellent solubility							
O=[N+]([O-])c1ccc([S@SP3](=O)(=O)N2CCN(c3ccccc3)CC2)cc1 [BCN512, 1-[(4-nitrobenezene)sulfonyl]-4-phenyl piperazine]						several folds higher	several folds high	significant reduction	reduced	same results	significant reduction	significantly increased
